Measurements as given in ChEMBL document CHEMBL4840344, “Discovery of 1,8-naphthalidine derivatives as potent anti-hepatic fibrosis agents via repressing PI3K/AKT/Smad and JAK2/STAT3 pathways” (Bioorg Med Chem, 2021).
Active and inactive are the calls of the source. The rule behind the calls is not given here.

Assays:
COL1A1 promoter [1] = test: Inhibition of COL1A1 promotor activity in human LX2 cells at 50 uM incubated for 24 hrs by luciferase reporter gene assay; format: cell-based
COL1A1 promoter [2] = test: Inhibition of COL1A1 promotor activity in human LX2 cells at 20 uM incubated for 24 hrs by luciferase reporter gene assay; format: cell-based
[3] = Cytotoxicity against human LX2 cells assessed as cell death incubated for 24 hrs by MTT assay; format: cell-based, LX-2

Row | Structure (SMILES) | inhibition (COL1A1 promoter [1]) | inhibition (COL1A1 promoter [2]) | CC50 at 24 h [3] [µM]
1 | CN(C)c1ccc2c(=O)c(C(=O)Nc3cc(F)cc(F)c3)cn(-c3ccc(OCCCCCCC[N+](C)(C)C4CCCCC4)cc3Cl)c2n1 | inactive | inactive | 
2 | CN(C)c1ccc2c(=O)c(C(=O)Nc3cc(F)cc(F)c3)cn(-c3ccc(OCCCCCCC[n+]4ccccc4)cc3F)c2n1 | inactive | 15.4% | < 20
3 | CN(C)c1ccc2c(=O)c(C(=O)Nc3cc(F)cc(F)c3)cn(-c3ccc(Cl)c(OCCCCCCC[N+]45CCN(CC4)CC5)c3)c2n1 | 18.7% | 8.08% | 
4 | CC[N+]1(CCCCCCCOc2cc(-n3cc(C(=O)Nc4cc(F)cc(F)c4)c(=O)c4ccc(N(C)C)nc43)ccc2Cl)CCCC1 | 96.4% | 46% | 61.3
5 | Cc1ccc(-n2cc(C(=O)Nc3cc(F)cc(F)c3)c(=O)c3ccc(N(C)C)nc32)cc1OCCCCCCC[N+]1(C)CCN(C)CC1 | 25% | 10.3% | 
6 | CN(C)c1ccc2c(=O)c(C(=O)Nc3cc(F)cc(F)c3)cn(-c3ccc(OCCCCCCC[N+]4(C)CCCC4)cc3Cl)c2n1 | inactive | inactive | < 20
7 | Cc1cc(-n2cc(C(=O)Nc3cc(F)cc(F)c3)c(=O)c3ccc(N(C)C)nc32)ccc1OCCCCCCC[n+]1ccccc1 | 55% | inactive | 
8 | Cc1cc(-n2cc(C(=O)Nc3cc(F)cc(F)c3)c(=O)c3ccc(N(C)C)nc32)ccc1OCCCCCCC[N+]1(C)CCN(C)CC1 | 32% | 16.2% | 
9 | Cc1cc(OCCCCCCC[N+](C)(C)C2CCCCC2)cc(-n2cc(C(=O)Nc3cc(F)cc(F)c3)c(=O)c3ccc(N(C)C)nc32)c1 | 89.1% | 52.5% | 61.8
10 | CN(C)c1ccc2c(=O)c(C(=O)Nc3cc(F)cc(F)c3)cn(-c3ccc(OCCCCCCC[N+]45CCN(CC4)CC5)c(Cl)c3)c2n1 | 20.4% |  | 
11 | Cc1cc(OCCCCCCC[N+]2(C)CCN(C)CC2)ccc1-n1cc(C(=O)Nc2cc(F)cc(F)c2)c(=O)c2ccc(N(C)C)nc21 | inactive | inactive | < 20
12 | Cc1ccc(-n2cc(C(=O)Nc3cc(F)cc(F)c3)c(=O)c3ccc(N(C)C)nc32)cc1OCCCCCCC[N+]1(C)CCCC1 | 55.9% | 12.7% | 
13 | Cc1ccc(-n2cc(C(=O)Nc3cc(F)cc(F)c3)c(=O)c3ccc(N(C)C)nc32)cc1OCCCCCCC[n+]1ccccc1 | 22.2% | 39.7% | 
14 | CN1CC[N+](C)(CCCCCCCOc2ccc(-n3cc(C(=O)Nc4cc(F)cc(F)c4)c(=O)c4ccc(N(C)C)nc43)c(F)c2)CC1 |  | inactive | 
15 | CN(C)c1ccc2c(=O)c(C(=O)Nc3cc(F)cc(F)c3)cn(-c3ccc(OCCCCCCC[N+]4(C)CCCCC4)cc3F)c2n1 | inactive | inactive | < 20
16 | Cc1cc(-n2cc(C(=O)Nc3cc(F)cc(F)c3)c(=O)c3ccc(N(C)C)nc32)ccc1OCCCCCCC[N+]12CCN(CC1)CC2 | 20.8% | 10.6% | 
17 | CC[N+]1(CCCCCCCOc2cc(-n3cc(C(=O)Nc4cc(F)cc(F)c4)c(=O)c4ccc(N(C)C)nc43)ccc2Cl)CCCCC1 | inactive | inactive | 
18 | CN(C)c1ccc2c(=O)c(C(=O)Nc3cc(F)cc(F)c3)cn(-c3ccc(OCCCCCCC[N+]4(C)CCCC4)c(Cl)c3)c2n1 | 2.59% |  | 
19 | O=C(O[C@@H]1Cc2c(O)cc(O)cc2O[C@@H]1c1cc(O)c(O)c(O)c1)c1cc(O)c(O)c(O)c1 [EPIGALOCATECHIN GALLATE] | 32.2% | 19.2% | > 100
20 | CN1CC[N+](C)(CCCCCCCOc2ccc(-n3cc(C(=O)Nc4cc(F)cc(F)c4)c(=O)c4ccc(N(C)C)nc43)c(Cl)c2)CC1 | inactive | inactive | < 20
21 | CC[N+]1(CCCCCCCOc2ccc(-n3cc(C(=O)Nc4cc(F)cc(F)c4)c(=O)c4ccc(N(C)C)nc43)c(C)c2)CCCCC1 | inactive | inactive | < 20
22 | CN(C)c1ccc2c(=O)c(C(=O)Nc3cc(F)cc(F)c3)cn(-c3ccc(OCCCCCCC[N+]4(C)CCCC4)cc3F)c2n1 | inactive | inactive | < 20
23 | CN(C)c1ccc2c(=O)c(C(=O)Nc3cc(F)cc(F)c3)cn(-c3ccc(OCCCCCCC[N+]4(C)CCCCC4)c(Cl)c3)c2n1 | inactive |  | 
24 | Cc1cc(-n2cc(C(=O)Nc3cc(F)cc(F)c3)c(=O)c3ccc(N(C)C)nc32)ccc1OCCCCCCC[N+]1(C)CCCCC1 | 54.4% | 33% | 
25 | Cc1ccc(-n2cc(C(=O)Nc3cc(F)cc(F)c3)c(=O)c3ccc(N(C)C)nc32)cc1OCCCCCCC[N+]12CCN(CC1)CC2 | 9.71% | 5.07% | 
26 | Cc1ccc(-n2cc(C(=O)Nc3cc(F)cc(F)c3)c(=O)c3ccc(N(C)C)nc32)cc1OCCCCCCC[N+]1(C)CCCCC1 | 45.1% | 23.4% | 
27 | CC[N+]1(CCCCCCCOc2ccc(-n3cc(C(=O)Nc4cc(F)cc(F)c4)c(=O)c4ccc(N(C)C)nc43)cc2C)CCCCC1 | 53.4% | 19.7% | 

Row | Structure (SMILES) | inhibition (COL1A1 promoter [1]) | inhibition (COL1A1 promoter [2]) | CC50 at 24 h [3] [µM]
28 | CC[N+]1(CCCCCCCOc2ccc(-n3cc(C(=O)Nc4cc(F)cc(F)c4)c(=O)c4ccc(N(C)C)nc43)c(Cl)c2)CCCC1 | inactive | inactive | < 20
29 | CN(C)c1ccc2c(=O)c(C(=O)Nc3cc(F)cc(F)c3)cn(-c3ccc(OCCCCCCC[n+]4ccccc4)cc3Cl)c2n1 | inactive | inactive | 
30 | CN(C)c1ccc2c(=O)c(C(=O)Nc3cc(F)cc(F)c3)cn(-c3ccc(OCCCCCCC[n+]4ccccc4)c(Cl)c3)c2n1 | 21.4% |  | 
31 | Cc1cc(OCCCCCCC[N+]23CCN(CC2)CC3)ccc1-n1cc(C(=O)Nc2cc(F)cc(F)c2)c(=O)c2ccc(N(C)C)nc21 | inactive | inactive | < 20
32 | Cc1ccc(-n2cc(C(=O)Nc3cc(F)cc(F)c3)c(=O)c3ccc(N(C)C)nc32)cc1OCCCCCCC[N+](C)(C)C1CCCCC1 | 61.7% | 32.3% | 
33 | CN(C)c1ccc2c(=O)c(C(=O)Nc3cc(F)cc(F)c3)cn(-c3ccc(Cl)c(OCCCCCCC[N+]4(C)CCCC4)c3)c2n1 | 76.1% | 51% | 54.5
34 | Cc1cc(OCCCCCCC[N+]2(C)CCCCC2)ccc1-n1cc(C(=O)Nc2cc(F)cc(F)c2)c(=O)c2ccc(N(C)C)nc21 | inactive | inactive | < 20
35 | Cc1cc(OCCCCCCC[n+]2ccccc2)ccc1-n1cc(C(=O)Nc2cc(F)cc(F)c2)c(=O)c2ccc(N(C)C)nc21 | inactive | inactive | 
36 | CN(C)c1ccc2c(=O)c(C(=O)Nc3cc(F)cc(F)c3)cn(-c3ccc(OCCCCCCC[N+]45CCN(CC4)CC5)cc3Cl)c2n1 | 80% | 40.1% | 76.9
37 | Cc1cc(OCCCCCCC[N+]23CCN(CC2)CC3)cc(-n2cc(C(=O)Nc3cc(F)cc(F)c3)c(=O)c3ccc(N(C)C)nc32)c1 | 5.52% | 10.3% | 
38 | CC[N+]1(CCCCCCCOc2ccc(-n3cc(C(=O)Nc4cc(F)cc(F)c4)c(=O)c4ccc(N(C)C)nc43)cc2Cl)CCCCC1 | 50.4% | 14.3% | 
39 | Cc1cc(OCCCCCCC[n+]2ccccc2)cc(-n2cc(C(=O)Nc3cc(F)cc(F)c3)c(=O)c3ccc(N(C)C)nc32)c1 | 61% | 7.7% | 
40 | Cc1cc(-n2cc(C(=O)Nc3cc(F)cc(F)c3)c(=O)c3ccc(N(C)C)nc32)ccc1OCCCCCCC[N+]1(C)CCCC1 | 35.9% | 26.1% | 
41 | CC[N+]1(CCCCCCCOc2ccc(-n3cc(C(=O)Nc4cc(F)cc(F)c4)c(=O)c4ccc(N(C)C)nc43)c(Cl)c2)CCCCC1 | inactive | inactive | < 20
42 | CN(C)c1ccc2c(=O)c(C(=O)Nc3cc(F)cc(F)c3)cn(-c3ccc(OCCCCCCC[N+](C)(C)C4CCCCC4)cc3F)c2n1 | inactive | inactive | 
43 | CC[N+]1(CCCCCCCOc2ccc(-n3cc(C(=O)Nc4cc(F)cc(F)c4)c(=O)c4ccc(N(C)C)nc43)cc2Cl)CCCC1 | 23.5% |  | 
44 | CN1CC[N+](C)(CCCCCCCOc2cc(-n3cc(C(=O)Nc4cc(F)cc(F)c4)c(=O)c4ccc(N(C)C)nc43)ccc2Cl)CC1 | 45.2% | 27.5% | 
45 | Cc1cc(OCCCCCCC[N+]2(C)CCCC2)ccc1-n1cc(C(=O)Nc2cc(F)cc(F)c2)c(=O)c2ccc(N(C)C)nc21 | inactive | inactive | < 20
46 | CC[N+]1(CCCCCCCOc2ccc(-n3cc(C(=O)Nc4cc(F)cc(F)c4)c(=O)c4ccc(N(C)C)nc43)c(F)c2)CCCCC1 | inactive | inactive | < 20
47 | Cc1cc(OCCCCCCC[N+](C)(C)C2CCCCC2)ccc1-n1cc(C(=O)Nc2cc(F)cc(F)c2)c(=O)c2ccc(N(C)C)nc21 | inactive | inactive | 
48 | CC[N+]1(CCCCCCCOc2cc(C)cc(-n3cc(C(=O)Nc4cc(F)cc(F)c4)c(=O)c4ccc(N(C)C)nc43)c2)CCCC1 | 73.2% | 35.1% | 
49 | CC[N+]1(CCCCCCCOc2ccc(-n3cc(C(=O)Nc4cc(F)cc(F)c4)c(=O)c4ccc(N(C)C)nc43)c(F)c2)CCCC1 | inactive | inactive | < 20
50 | Cc1cc(OCCCCCCC[N+]2(C)CCCC2)cc(-n2cc(C(=O)Nc3cc(F)cc(F)c3)c(=O)c3ccc(N(C)C)nc32)c1 | 35.4% | 4.32% | 
51 | Cc1cc(OCCCCCCC[N+]2(C)CCN(C)CC2)cc(-n2cc(C(=O)Nc3cc(F)cc(F)c3)c(=O)c3ccc(N(C)C)nc32)c1 | 38.2% | 2.8% | 
52 | CN1CC[N+](C)(CCCCCCCOc2ccc(-n3cc(C(=O)Nc4cc(F)cc(F)c4)c(=O)c4ccc(N(C)C)nc43)cc2Cl)CC1 | 15.4% |  | 
53 | CN(C)c1ccc2c(=O)c(C(=O)Nc3cc(F)cc(F)c3)cn(-c3ccc(OCCCCCCC[N+]45CCN(CC4)CC5)cc3F)c2n1 | 42.4% | 9.02% | 
